Structure (SMILES) | melting point
CCC1(CC)NC(=O)N(c2ccc(Cl)c(C(F)(F)F)c2)C1=O | 86 to 87 °C
Cc1c(C)c2c(c(C)c1NC(=O)CC(C)(C)C)C(c1ccc(C(C)C)c(OCCO)c1)CO2 (centres undefined) | 155 to 156 °C
CCC(CC)c1nn(-c2ccc(C(F)(F)F)cn2)cc1CCCO | 79 to 80 °C
CC1=CC(C)(C)N2C(=O)C(=O)c3cc(C)cc1c32 | 157 to 161 °C
N=C(Nc1ccc2c(c1)CNCCO2)c1ccsc1 | 150 to 152 °C
CCOC(=O)CNC(=O)NCc1cccc2c1C(=O)N(C1CCC(=O)NC1=O)C2=O (centres undefined) | 187 to 189 °C
CN1C(=O)CN=C(c2ccccc2F)c2cc(CCN)ccc21 | 125 °C
Cc1cc2c(c3c1NC(=O)CC3)O[C@@H](CN)[C@H]2C (racemic) | > 300 °C
O=C(O)Cc1ccc(C(=O)c2ccc(Cl)cc2)s1 | 165 °C
N#CC1(c2ccc(F)cc2)CCC(N2CCN(c3cccnn3)CC2)CC1 (centres undefined) | 189 °C
CCOC(=O)CC1CN=C(c2cc3cc(OC(F)(F)F)cc(N(C)S(=O)(=O)c4cccs4)c3[nH]2)S1 (centres undefined) | 93 to 94 °C
NS(=O)(=O)c1cccc(C2(O)CCCCC2)c1 | 172 to 176 °C
CC(C)(C)c1nc2cc(N3CCCCC3)c(N=C=S)cc2s1 | 112 to 114 °C
Cc1c(Cl)ccc(C(=O)O)c1F | 198 °C
CS(=O)(=O)c1ccc(C(=O)c2c(O)cc(Cl)cc2Cl)c(Cl)c1 | 123 to 126 °C
CNC(=O)N1CC(Oc2cccc(C(N)=O)c2)C1 | 238 to 240 °C
CC(=O)Nc1ccc2c(c1)C(=O)N(CCO[N+](=O)[O-])CO2 | 141 to 142 °C
OCCCCn1ccc(NC(=S)Nc2ccccc2)n1 | 112 to 117 °C
OCCCOc1cccc(NC(=S)NCC(F)(F)F)n1 | 123 to 124 °C
CCOC(=O)C(=O)Nc1c(Cl)cc(Cl)c(Cl)c1O | 178 °C

Now from value to compound:

melting point | Structure (SMILES)
184 to 186 °C | CCn1ncc2c(-c3cncc(C)c3)c(CCC(=O)O)c(-c3ocnc3C)nc21
133 °C | CCOC(=O)NC(=O)C(c1ccccc1)c1ccccc1
103 to 107 °C | CC(C)(C)OC(=O)N[C@@H](Cc1ccc(Cc2ccccc2)cc1)C(=O)O
171 to 172 °C | Cc1nc(NC(=O)c2ccncc2)sc1C(=O)NCc1ccccc1
165 to 167 °C | Cc1noc(C)c1CN1CC2(COc3cc4c(cc32)OCO4)c2ccccc21 (centres undefined)
182 to 184 °C | CCCCCCCNC(=O)Nc1ccc(N2CCCC2)cc1C(=O)NCC1CCN(C(c2ccccc2)c2ccccc2)CC1
163 to 165 °C | OCc1nc2cccnc2n1Cc1ccc(-c2ccccc2)cc1
238 °C | CCCCNCCCOc1ccc(-c2ccc(C(=O)O)cc2)cc1-c1ccc2c(c1)C(C)(C)CCC2(C)C
169 to 172 °C | COc1cc2oc(=O)c(CCN3CCN(c4ccccc4)CC3)c(C)c2cc1OC
104 to 106 °C | COc1ccc2[nH]c(SCc3ncnc(N4CCCC4)c3C)nc2c1
185 °C | O=C(N1CC(CCl)c2c1ccc1ccccc21)C(F)(F)F (centres undefined)
> 250 °C | CC(Nc1nc(-c2ccc([N+](=O)[O-])cc2)nc2[nH]ccc12)c1ccccc1 (centres undefined)
139 to 141 °C | CC(C)c1ccc(-c2nc(=O)n(Cc3ccccc3)c3ccc(OCC#N)cc23)cc1
254 °C | CN1CCC(NC(c2cccc([N+](=O)[O-])c2)c2nc3ccccc3[nH]2)CC1 (centres undefined)
> 340 °C | O=c1[nH]c(=O)c2c1c1oc3ccccc3oc1c1[nH]c3cc(O)ccc3c12
> 250 °C | CNC(=O)c1cccc2cccc(NC(=O)c3ccc(F)c(F)c3)c12
191 °C | Cn1ncnc1COc1nn2c(-c3ccccc3F)nnc2cc1C1(C)CCOCC1
229 °C | Cc1ncc(-c2ccccc2)c(-c2ccc3c(c2)NC(=O)CO3)n1
122 to 124 °C | Cc1nc(-c2ccccc2)nc(-c2cccc([N+](=O)[O-])c2)c1C(=O)NCCN(C)C
